Experimental data as given in patent US9456604B2, “Herbicide composition” (Syngenta Crop Protection, LLC, priority 2008, dated 2016).

What was measured:
Format in all cases: in vivo
[1] = tested on: corn; experiment: Greenhouse trial, effect of pH on selectivity: four corn varieties; details: for % phytotoxicity observed, Corn "Cecilia" 8 DAA / % phytotoxicity observed, Corn "Lorenzo" 8 DAA / % phytotoxicity observed, Corn "Marista" 8 DAA / % phytotoxicity observed, Corn "Blizzard" 28 DAA / % phytotoxicity observed, Corn "Cecilia" 28 DAA / % phytotoxicity observed, Corn "Lorenzo" 28 DAA / % phytotoxicity observed, Corn "Marista" 28 DAA / % phytotoxicity observed, Corn "Blizzard" 8 DAA: early POST, 200 l/ha
Method: (§1) A greenhouse trial was conducted to look at the effect of pH on the selectivity of an emulsifiable concentrate composition comprising compound B (compound of formula wherein R^1=methoxy-propyl and R^2═CHF2). Applications were made early POST using four corn varieties and eight weeds (Broad leaf weeds: Amaranthus retroflexus (AMARE), Ipomoea hederacea (IPOHE), Polygonum convolvulus (POLCO) Grasses: Digitaria sanuinalis (DIGSA), Echinochloa crus-galli (ECHCG), Eriochloa villosa (ERBVI), Panicum dichotomiflorum (PANDI), Setaria viridus (SETVI)). The spray volume applied was 200 l/ha. Phytotoxicity evaluations were made 8 days after application (DAA) and/or 28 DAA. Results are provided as % phytotoxicity observed wherein 0=no visible phytotoxicity to 100=complete phytotoxicity.

[2] = tested on: Ipomoea hederacea (IPOHE); experiment: Greenhouse trial, effect of pH on selectivity: weed; details: early POST, 200 l/ha
Method: as §1

[3] = tested on: Setaria viridus (SETVI); experiment: as above; details: early POST, 200 l/ha
Method: as §1

[4] = tested on: Eriochloa villosa (ERBVI); experiment: as above; details: early POST, 200 l/ha
Method: as §1

[5] = tested on: Digitaria sanuinalis (DIGSA); experiment: as above; details: early POST, 200 l/ha
Method: as §1

[6] = tested on: Polygonum convolvulus (POLCO); experiment: as above; details: early POST, 200 l/ha
Method: as §1

[7] = tested on: Echinochloa crus-galli (ECHCG); experiment: as above; details: early POST, 200 l/ha
Method: as §1

[8] = tested on: Amaranthus retroflexus (AMARE); experiment: as above; details: early POST, 200 l/ha
Method: as §1

[9] = tested on: Panicum dichotomiflorum (PANDI); experiment: as above; details: early POST, 200 l/ha
Method: as §1

COCCCc1nc(C(F)F)ccc1C(=O)C1C(=O)C2CCC(C2)C1=O (stereo not drawn) [Compound B]
80%: % phytotoxicity observed, IPOHE 8 DAA ([2]; 100 g ai/ha, pH 3, 8 DAA) | % phytotoxicity observed, ERBVI 8 DAA ([4]; 100 g ai/ha, pH 3, 8 DAA) | % phytotoxicity observed, POLCO 8 DAA ([6]; 100 g ai/ha, pH 3, 8 DAA) | % phytotoxicity observed, ECHCG 8 DAA ([7]; 100 g ai/ha, pH 3, 8 DAA)
70%: % phytotoxicity observed, POLCO 8 DAA ([6]; 100 g ai/ha, pH 8, 8 DAA)
25%: % phytotoxicity observed, Corn "Lorenzo" 28 DAA ([1]; 100 g ai/ha, pH 3, 28 DAA) | % phytotoxicity observed, Corn "Blizzard" 8 DAA ([1]; 200 g ai/ha, pH 3, 8 DAA) | % phytotoxicity observed, Corn "Lorenzo" 8 DAA ([1]; 200 g ai/ha, pH 8, 8 DAA) | % phytotoxicity observed, Corn "Lorenzo" 28 DAA ([1]; 200 g ai/ha, pH 8, 28 DAA)
100%: % phytotoxicity observed, SETVI 8 DAA ([3]; 200 g ai/ha, pH 3, 8 DAA) | % phytotoxicity observed, DIGSA 8 DAA ([5]; 200 g ai/ha, pH 3, 8 DAA) | % phytotoxicity observed, AMARE 8 DAA ([8]; 200 g ai/ha, pH 3, 8 DAA) | % phytotoxicity observed, PANDI 8 DAA ([9]; 200 g ai/ha, pH 3, 8 DAA) | % phytotoxicity observed, PANDI 8 DAA ([9]; 200 g ai/ha, pH 8, 8 DAA)
90%: % phytotoxicity observed, IPOHE 8 DAA ([2]; 200 g ai/ha, pH 8, 8 DAA) | % phytotoxicity observed, SETVI 8 DAA ([3]; 100 g ai/ha, pH 3, 8 DAA) | % phytotoxicity observed, SETVI 8 DAA ([3]; 100 g ai/ha, pH 8, 8 DAA) | % phytotoxicity observed, ERBVI 8 DAA ([4]; 200 g ai/ha, pH 3, 8 DAA) | % phytotoxicity observed, POLCO 8 DAA ([6]; 200 g ai/ha, pH 8, 8 DAA)
10%: % phytotoxicity observed, Corn "Blizzard" 28 DAA ([1]; 100 g ai/ha, pH 3, 28 DAA) | % phytotoxicity observed, Corn "Cecilia" 28 DAA ([1]; 100 g ai/ha, pH 3, 28 DAA) | % phytotoxicity observed, Corn "Blizzard" 28 DAA ([1]; 100 g ai/ha, pH 8, 28 DAA) | % phytotoxicity observed, Corn "Cecilia" 28 DAA ([1]; 100 g ai/ha, pH 8, 28 DAA) | % phytotoxicity observed, Corn "Blizzard" 28 DAA ([1]; 200 g ai/ha, pH 8, 28 DAA) | % phytotoxicity observed, Corn "Cecilia" 28 DAA ([1]; 200 g ai/ha, pH 8, 28 DAA)
95%: % phytotoxicity observed, IPOHE 8 DAA ([2]; 200 g ai/ha, pH 3, 8 DAA) | % phytotoxicity observed, DIGSA 8 DAA ([5]; 200 g ai/ha, pH 8, 8 DAA) | % phytotoxicity observed, POLCO 8 DAA ([6]; 200 g ai/ha, pH 3, 8 DAA) | % phytotoxicity observed, ECHCG 8 DAA ([7]; 100 g ai/ha, pH 8, 8 DAA) | % phytotoxicity observed, ECHCG 8 DAA ([7]; 200 g ai/ha, pH 8, 8 DAA) | % phytotoxicity observed, AMARE 8 DAA ([8]; 100 g ai/ha, pH 8, 8 DAA)
significantly decreased: phytotoxicity observed in corn when applied at pH 8 rather than pH 3 ([1]; pH 8 versus pH 3, greenhouse trial, Table C)
98%: % phytotoxicity observed, SETVI 8 DAA ([3]; 200 g ai/ha, pH 8, 8 DAA) | % phytotoxicity observed, ERBVI 8 DAA ([4]; 100 g ai/ha, pH 8, 8 DAA) | % phytotoxicity observed, ERBVI 8 DAA ([4]; 200 g ai/ha, pH 8, 8 DAA) | % phytotoxicity observed, ECHCG 8 DAA ([7]; 200 g ai/ha, pH 3, 8 DAA) | % phytotoxicity observed, AMARE 8 DAA ([8]; 100 g ai/ha, pH 3, 8 DAA) | % phytotoxicity observed, AMARE 8 DAA ([8]; 200 g ai/ha, pH 8, 8 DAA) | % phytotoxicity observed, PANDI 8 DAA ([9]; 100 g ai/ha, pH 3, 8 DAA) | % phytotoxicity observed, PANDI 8 DAA ([9]; 100 g ai/ha, pH 8, 8 DAA)
5%: % phytotoxicity observed, Corn "Cecilia" 8 DAA ([1]; 100 g ai/ha, pH 3, 8 DAA) | % phytotoxicity observed, Corn "Marista" 8 DAA ([1]; 100 g ai/ha, pH 3, 8 DAA) | % phytotoxicity observed, Corn "Marista" 28 DAA ([1]; 100 g ai/ha, pH 3, 28 DAA) | % phytotoxicity observed, Corn "Cecilia" 8 DAA ([1]; 100 g ai/ha, pH 8, 8 DAA) | % phytotoxicity observed, Corn "Marista" 8 DAA ([1]; 100 g ai/ha, pH 8, 8 DAA) | % phytotoxicity observed, Corn "Marista" 28 DAA ([1]; 100 g ai/ha, pH 8, 28 DAA) | % phytotoxicity observed, Corn "Marista" 8 DAA ([1]; 200 g ai/ha, pH 8, 8 DAA) | % phytotoxicity observed, Corn "Marista" 28 DAA ([1]; 200 g ai/ha, pH 8, 28 DAA)
85%: % phytotoxicity observed, IPOHE 8 DAA ([2]; 100 g ai/ha, pH 8, 8 DAA) | % phytotoxicity observed, DIGSA 8 DAA ([5]; 100 g ai/ha, pH 3, 8 DAA) | % phytotoxicity observed, DIGSA 8 DAA ([5]; 100 g ai/ha, pH 8, 8 DAA)
30%: % phytotoxicity observed, Corn "Lorenzo" 8 DAA ([1]; 200 g ai/ha, pH 3, 8 DAA) | % phytotoxicity observed, Corn "Marista" 8 DAA ([1]; 200 g ai/ha, pH 3, 8 DAA) | % phytotoxicity observed, Corn "Lorenzo" 28 DAA ([1]; 200 g ai/ha, pH 3, 28 DAA)
20%: % phytotoxicity observed, Corn "Lorenzo" 8 DAA ([1]; 100 g ai/ha, pH 3, 8 DAA) | % phytotoxicity observed, Corn "Lorenzo" 8 DAA ([1]; 100 g ai/ha, pH 8, 8 DAA) | % phytotoxicity observed, Corn "Lorenzo" 28 DAA ([1]; 100 g ai/ha, pH 8, 28 DAA) | % phytotoxicity observed, Corn "Cecilia" 8 DAA ([1]; 200 g ai/ha, pH 3, 8 DAA) | % phytotoxicity observed, Corn "Blizzard" 28 DAA ([1]; 200 g ai/ha, pH 3, 28 DAA) | % phytotoxicity observed, Corn "Cecilia" 28 DAA ([1]; 200 g ai/ha, pH 3, 28 DAA) | % phytotoxicity observed, Corn "Blizzard" 8 DAA ([1]; 200 g ai/ha, pH 8, 8 DAA) | % phytotoxicity observed, Corn "Cecilia" 8 DAA ([1]; 200 g ai/ha, pH 8, 8 DAA)
15%: % phytotoxicity observed, Corn "Marista" 28 DAA ([1]; 200 g ai/ha, pH 3, 28 DAA)
